Assay results taken from ChEMBL document CHEMBL1770073, “Synthesis of cinnamoyl ketoamides as hybrid structures of antioxidants and calpain inhibitors” (Bioorg Med Chem Lett, 2011).

What was measured:
Liver = experiment: Antioxidant activity in rat liver homogenates assessed as inhibition of lipid peroxidation by measuring formation of thiobarbituric acid-reactive substance after 30 mins; format: functional, tissue-based; details: 0.5 h
[1] = Antioxidant activity assessed as xanthine-xanthine oxidase generated superoxide anion scavenging after 20 mins; format: functional
[2] = tested on: Radical scavenging activity; experiment: Antioxidant activity assessed as DPPH free radical scavenging activity after 30 mins; format: functional
[3] = biological target: T1, Calpain-1 catalytic subunit (Homo sapiens, UniProt P07384); experiment: Inhibition of human erythrocytes mu-calpain using Suc-Leu-Tyr-AMC fluorogenic substrate after 30 mins by spectrofluorimetry
T1 sequence (P07384 whole entry): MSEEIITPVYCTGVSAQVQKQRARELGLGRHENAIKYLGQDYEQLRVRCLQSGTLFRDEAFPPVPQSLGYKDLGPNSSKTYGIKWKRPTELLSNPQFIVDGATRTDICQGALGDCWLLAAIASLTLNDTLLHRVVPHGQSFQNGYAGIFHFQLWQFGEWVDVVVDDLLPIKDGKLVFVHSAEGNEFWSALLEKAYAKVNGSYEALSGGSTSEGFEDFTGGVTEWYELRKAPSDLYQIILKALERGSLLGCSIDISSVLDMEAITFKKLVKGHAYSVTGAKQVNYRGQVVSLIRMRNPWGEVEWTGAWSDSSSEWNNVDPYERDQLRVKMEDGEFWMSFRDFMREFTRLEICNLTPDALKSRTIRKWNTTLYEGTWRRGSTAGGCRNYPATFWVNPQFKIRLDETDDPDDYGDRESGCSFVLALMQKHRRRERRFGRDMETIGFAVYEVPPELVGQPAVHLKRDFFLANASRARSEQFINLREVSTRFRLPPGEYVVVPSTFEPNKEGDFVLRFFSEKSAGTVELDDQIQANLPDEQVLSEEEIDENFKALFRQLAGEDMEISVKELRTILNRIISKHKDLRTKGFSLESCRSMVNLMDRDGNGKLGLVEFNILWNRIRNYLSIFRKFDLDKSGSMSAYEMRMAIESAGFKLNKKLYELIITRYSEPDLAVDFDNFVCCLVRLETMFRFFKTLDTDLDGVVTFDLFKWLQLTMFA

| SMILES | IC50 (Liver) [µM] | IC50 [1] [µM] | IC50 [2] [µM] | IC50 [3] [µM] |
| --- | --- | --- | --- | --- |
| COc1ccc(OC)c(C(=O)CCC(=O)N[C@@H](Cc2ccccc2)C(=O)C(N)=O)c1 | > 100 | > 100 | > 100 |  |
| O=C1O[C@H]([C@@H](O)CO)C(O)=C1O [ASCORBIC ACID] | > 100 | > 100 | 30.8 |  |
| CCCC/C(=C\c1ccc(OC)c(OC)c1)C(=O)N[C@@H](Cc1ccccc1)C(=O)C(=O)NCCc1ccc(OC)cc1 (stereo in doubt) | > 100 | > 100 | > 100 | 1.38 |
| CCC/C(=C\c1ccc(O)c(O)c1)C(=O)N[C@@H](Cc1ccccc1)C(=O)C(=O)NCc1ccccc1 (stereo in doubt) | 6.15 | 27.1 | 42.2 | 0.36 |
| Cc1c(C(=O)N[C@@H](Cc2ccccc2)C(=O)C(N)=O)oc2ccccc2c1=O | > 100 | > 100 | > 100 | 0.07 |
| Cc1c(C)c2c(c(C)c1O)CCC(C)(C(=O)O)O2 (stereo unspecified) [TROLOX] | 71.4 |  |  |  |
| CC/C(=C\c1ccc(O)c(O)c1)C(=O)N[C@@H](Cc1ccccc1)C(=O)C(=O)NCCc1ccc(OC)cc1 (stereo in doubt) | 6.4 | 29.2 | 46.1 | 0.46 |
| CCCC/C(=C\c1ccc(O)c(OC)c1)C(=O)N[C@@H](Cc1ccccc1)C(=O)C(=O)NCCc1ccc(OC)cc1 (stereo in doubt) | 36.1 | > 100 | > 100 | 0.63 |

Continued by falling IC50 (Liver), values first:

| IC50 (Liver) [µM] | IC50 [1] [µM] | IC50 [2] [µM] | IC50 [3] [µM] | SMILES |
| --- | --- | --- | --- | --- |
| 7.53 | 31.2 | 40.4 | 6.07 | O=C(/C=C/c1ccc(O)c(O)c1)N[C@@H](Cc1ccccc1)C(=O)C(=O)NCc1ccccc1 |
| 7.34 | 30.9 | 36.7 | 0.67 | CCCC/C(=C\c1ccc(O)c(O)c1)C(=O)N[C@@H](Cc1ccccc1)C(=O)C(=O)NCc1ccccc1 (stereo in doubt) |
| 6.09 | 15.5 | 45.5 | 0.61 | CC/C(=C\c1ccc(O)c(O)c1)C(=O)N[C@@H](Cc1ccccc1)C(=O)C(=O)NCc1ccccc1 (stereo in doubt) |
| 6.06 | 41.7 | 44.6 | 0.32 | CC(C)C/C(=C\c1ccc(O)c(O)c1)C(=O)N[C@@H](Cc1ccccc1)C(=O)C(=O)NCc1ccccc1 (stereo in doubt) |
| 5.88 | 41.4 | 38.9 | 0.5 | CCCC/C(=C\c1ccc(O)c(O)c1)C(=O)N[C@@H](Cc1ccccc1)C(=O)C(=O)NCCc1ccc(OC)cc1 (stereo in doubt) |
| 5.71 | 38 | 48.6 | 0.13 | CCC/C(=C\c1ccc(O)c(O)c1)C(=O)N[C@@H](Cc1ccccc1)C(=O)C(=O)NCCc1ccc(OC)cc1 (stereo in doubt) |
